Where two headings read alike, the source gives them in different places. *1 amine or outer side, *2 acyl side, *3 side chain or, on linkers, in order; H or OH if unused. Where a SMILES comes first, the peptide text is derived from it. Side-chain parts run from the residue outwards. [ ]: non-standard residue; d: D form. The star is where a group is joined. γGlu = O=C(O)[C@H](CCC(=O)[*:2])N[*:1]; Palmitoyl = CCCCCCCCCCCCCCCC(=O)*; Aib = CC(C)(N)C(=O)O
Legend:
[1] = biological target: T1, GIP receptor (Homo sapiens, UniProt P48546); test: cAMP induction, firefly luciferase reporter assay in HEK293 cells co-transfected with GIP receptor; type: cell-based
T1 sequence (P48546 22-466): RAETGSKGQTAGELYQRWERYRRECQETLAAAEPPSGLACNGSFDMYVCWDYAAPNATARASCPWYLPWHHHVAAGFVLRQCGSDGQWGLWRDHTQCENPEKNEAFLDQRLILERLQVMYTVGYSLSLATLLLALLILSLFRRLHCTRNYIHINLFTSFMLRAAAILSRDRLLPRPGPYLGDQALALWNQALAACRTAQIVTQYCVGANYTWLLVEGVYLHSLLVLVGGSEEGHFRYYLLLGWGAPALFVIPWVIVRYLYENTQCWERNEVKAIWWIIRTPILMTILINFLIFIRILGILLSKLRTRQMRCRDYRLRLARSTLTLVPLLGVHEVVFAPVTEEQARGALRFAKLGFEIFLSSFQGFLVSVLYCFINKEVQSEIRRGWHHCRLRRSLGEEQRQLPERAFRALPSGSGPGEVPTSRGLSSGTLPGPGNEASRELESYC

[2] = biological target: T2, GLP-1 receptor (Homo sapiens, UniProt P43220); test: cAMP induction, firefly luciferase reporter assay in HEK293 cells co-transfected with GLP-1 receptor; type: cell-based
T2 construct: expressed in transfected cells; host or cells: HEK293
Source text: This example describes an exemplary method of testing the biological activity of the peptides of the present disclosures, which method involves assaying cAMP synthesis.

[3] = EC50 (nM) at GLP-1 Receptor, Table 6, Example 12

T2 sequence (P43220 24-463): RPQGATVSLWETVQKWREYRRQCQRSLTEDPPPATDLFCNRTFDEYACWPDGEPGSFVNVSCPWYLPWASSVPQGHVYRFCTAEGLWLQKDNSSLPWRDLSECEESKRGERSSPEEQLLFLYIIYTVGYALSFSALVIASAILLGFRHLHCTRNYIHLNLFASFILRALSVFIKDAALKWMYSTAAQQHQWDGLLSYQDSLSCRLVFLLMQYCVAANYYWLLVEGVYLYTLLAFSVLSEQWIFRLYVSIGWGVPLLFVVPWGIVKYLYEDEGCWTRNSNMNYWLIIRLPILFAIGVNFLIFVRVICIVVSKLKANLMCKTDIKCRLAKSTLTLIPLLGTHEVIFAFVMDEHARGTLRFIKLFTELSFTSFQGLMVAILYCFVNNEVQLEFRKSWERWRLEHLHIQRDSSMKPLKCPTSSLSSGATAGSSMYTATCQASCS

Question: For `CCCCCCCCCCCCCCCC(=O)N[C@@H](CCC(=O)NCCCC[C@H](NC(=O)[C@H](CC(=O)O)NC(=O)[C@H](CO)NC(=O)[C@@H](NC(=O)[C@H](Cc1ccccc1)NC(=O)[C@@H](NC(=O)CNC(=O)[C@H](CCC(N)=O)NC(=O)C(C)(C)NC(=O)[C@@H](N)Cc1c[nH]cn1)[C@@H](C)O)[C@@H](C)O)C(=O)N[C@@H](CO)C(=O)N[C@@H](CCCCN)C(=O)N[C@@H](Cc1ccc(O)cc1)C(=O)N[C@@H](CC(C)C)C(=O)N[C@@H](CC(=O)O)C(=O)N[C@@H](CCC(=O)O)C(=O)N[C@@H](CCCNC(=N)N)C(=O)N[C@@H](CCCNC(=N)N)C(=O)N[C@@H](C)C(=O)NC(C)(C)C(=O)N[C@@H](CCC(=O)O)C(=O)N[C@@H](Cc1ccccc1)C(=O)N[C@H](C(=O)N[C@@H](CCC(N)=O)C(=O)N[C@@H](Cc1c[nH]c2ccccc12)C(=O)N[C@@H](CC(C)C)C(=O)N[C@@H](CC(C)C)C(=O)N[C@@H](CC(=O)O)C(=O)NCC(=O)NCC(=O)N1CCC[C@H]1C(=O)N[C@@H](CO)C(=O)N[C@@H](CO)C(=O)NCC(=O)N[C@@H](C)C(=O)N1CCC[C@H]1C(=O)N1CCC[C@H]1C(=O)N1CCC[C@H]1C(=O)N[C@@H](CO)C(N)=O)C(C)C)C(=O)O` [SEQ ID NO: 37] (H-H[Aib]QGTFTSDK([γGlu-Palmitoyl])SKYLDERRA[Aib]EFVQWLLDGGPSSGAPPPS-NH2; N-terminus assumed), which EC50 ([1]; GIP (0.01), Table 8, Example 14, activity at the GIP receptor) is on record?
Answer: 0.003 nM

Question: For `CCCCCCCCCCCCCCCC(=O)NCCCC[C@H](NC(=O)[C@H](CO)NC(=O)[C@@H]1CCCN1C(=O)[C@@H]1CCCN1C(=O)[C@@H]1CCCN1C(=O)[C@H](C)NC(=O)CNC(=O)[C@H](CO)NC(=O)[C@H](CO)NC(=O)[C@@H]1CCCN1C(=O)CNC(=O)CNC(=O)[C@H](C)NC(=O)[C@H](CC(C)C)NC(=O)[C@H](CC(C)C)NC(=O)[C@H](Cc1c[nH]c2ccccc12)NC(=O)[C@H](CC(N)=O)NC(=O)[C@@H](NC(=O)[C@H](Cc1ccccc1)NC(=O)[C@H](CCC(=O)O)NC(=O)C(C)(C)NC(=O)[C@H](C)NC(=O)[C@H](C)NC(=O)[C@H](CCC(N)=O)NC(=O)[C@H](CCCCN)NC(=O)[C@H](CC(=O)O)NC(=O)[C@H](CC(C)C)NC(=O)[C@H](Cc1ccc(O)cc1)NC(=O)[C@@H](NC(=O)[C@H](CO)NC(=O)[C@H](Cc1ccc(O)cc1)NC(=O)[C@H](CC(=O)O)NC(=O)[C@H](CO)NC(=O)[C@@H](NC(=O)[C@H](Cc1ccccc1)NC(=O)[C@@H](NC(=O)CNC(=O)[C@H](CCC(=O)O)NC(=O)C(C)(C)NC(=O)[C@@H](N)Cc1ccc(O)cc1)[C@@H](C)O)[C@@H](C)O)[C@@H](C)CC)C(C)C)C(=O)NCC(N)=O` [SEQ ID NO: 139], which EC50 ([1]; EC50 (nM) at GIP Receptor, Table 9, Example 15) is on record?
Answer: 0.001 nM

Question: And the EC50 ([2]; EC50 (nM) at GLP-1 Receptor, Table 9, Example 15)?
Answer: 0.005 nM

Question: With `CC[C@H](C)[C@H](NC(=O)[C@H](CO)NC(=O)[C@H](Cc1ccc(O)cc1)NC(=O)[C@H](CC(=O)O)NC(=O)[C@H](CO)NC(=O)[C@@H](NC(=O)[C@H](Cc1ccccc1)NC(=O)[C@@H](NC(=O)CNC(=O)[C@H](CCC(N)=O)NC(=O)C(C)(C)NC(=O)[C@@H](N)Cc1c[nH]cn1)[C@@H](C)O)[C@@H](C)O)C(=O)N[C@@H](Cc1ccc(O)cc1)C(=O)N[C@@H](CC(C)C)C(=O)N[C@@H](CC(=O)O)C(=O)N[C@@H](CCC(=O)O)C(=O)N[C@@H](CCCCN)C(=O)N[C@@H](CCCNC(=N)N)C(=O)N[C@@H](C)C(=O)N[C@@H](CCCCN)C(=O)N[C@@H](CCC(=O)O)C(=O)N[C@@H](Cc1ccccc1)C(=O)N[C@H](C(=O)N[C@@H](CS)C(=O)N[C@@H](Cc1c[nH]c2ccccc12)C(=O)N[C@@H](CC(C)C)C(=O)N[C@@H](CC(C)C)C(=O)N[C@@H](C)C(=O)NCC(=O)NCC(=O)N1CCC[C@H]1C(=O)N[C@@H](CO)C(=O)N[C@@H](CO)C(=O)NCC(=O)N[C@@H](C)C(=O)N1CCC[C@H]1C(=O)N1CCC[C@H]1C(=O)N1CCC[C@H]1C(=O)N[C@@H](CO)C(=O)N[C@@H](CCCCN)C(N)=O)C(C)C` [SEQ ID NO: 230] (H-H[Aib]QGTFTSDYSIYLDEKRAKEFVCWLLAGGPSSGAPPPSK-NH2; N-terminus assumed) as the compound, how does the EC50 ([2]; GLP-1 EC50 (nM), Table 17, Example 25) read?
Answer: 0.222 nM

Question: How did the EC50 ([2]; EC50 (nM) at GLP-1 Receptor, Table 4, Example 9, composite of multiple different activity assays) turn out when `CCCCCCCCCCCCCCCC(=O)N[C@@H](CCC(=O)NCCCC[C@H](NC(=O)[C@H](CC(=O)O)NC(=O)[C@H](CO)NC(=O)[C@@H](NC(=O)[C@H](Cc1ccccc1)NC(=O)[C@@H](NC(=O)CNC(=O)[C@H](CCC(=O)O)NC(=O)C(C)(C)NC(=O)[C@@H](N)Cc1c[nH]cn1)[C@@H](C)O)[C@@H](C)O)C(=O)N[C@@H](CO)C(=O)N[C@@H](CCCCN)C(=O)N[C@@H](Cc1ccc(O)cc1)C(=O)N[C@@H](CC(C)C)C(=O)N[C@@H](CC(=O)O)C(=O)N[C@@H](CCC(=O)O)C(=O)N[C@@H](CCCNC(=N)N)C(=O)N[C@@H](CCCNC(=N)N)C(=O)N[C@@H](C)C(=O)NC(C)(C)C(=O)N[C@@H](CCC(=O)O)C(=O)N[C@@H](Cc1ccccc1)C(=O)N[C@H](C(=O)N[C@@H](CCC(N)=O)C(=O)N[C@@H](Cc1c[nH]c2ccccc12)C(=O)N[C@@H](CC(C)C)C(=O)N[C@@H](CC(C)C)C(=O)N[C@@H](CC(=O)O)C(=O)NCC(=O)NCC(=O)N1CCC[C@H]1C(=O)N[C@@H](CO)C(=O)N[C@@H](CO)C(=O)NCC(=O)N[C@@H](C)C(=O)N1CCC[C@H]1C(=O)N1CCC[C@H]1C(=O)N1CCC[C@H]1C(=O)N[C@@H](CO)C(N)=O)C(C)C)C(=O)O` [compound 38] (H-H[Aib]EGTFTSDK([γGlu-Palmitoyl])SKYLDERRA[Aib]EFVQWLLDGGPSSGAPPPS-NH2; N-terminus assumed) was run?
Answer: 0.008 nM

Question: With `CC[C@H](C)[C@H](NC(=O)[C@H](CO)NC(=O)[C@H](Cc1ccc(O)cc1)NC(=O)[C@H](CC(=O)O)NC(=O)[C@H](CO)NC(=O)[C@@H](NC(=O)[C@H](Cc1ccccc1)NC(=O)[C@@H](NC(=O)CNC(=O)[C@H](CCC(N)=O)NC(=O)[C@@H](CO)NC(=O)[C@@H](N)Cc1ccc(O)cc1)[C@@H](C)O)[C@@H](C)O)C(=O)N[C@@H](Cc1ccc(O)cc1)C(=O)N[C@@H](CC(C)C)C(=O)N[C@@H](CC(=O)O)C(=O)N[C@@H](CCCCN)C(=O)N[C@@H](CCC(N)=O)C(=O)N[C@@H](C)C(=O)N[C@@H](C)C(=O)NC(C)(C)C(=O)N[C@@H](CCC(=O)O)C(=O)N[C@@H](Cc1ccccc1)C(=O)N[C@H](C(=O)N[C@@H](CC(N)=O)C(=O)N[C@@H](Cc1c[nH]c2ccccc12)C(=O)N[C@@H](CC(C)C)C(=O)N[C@@H](CC(C)C)C(=O)N[C@@H](C)C(=O)NCC(=O)NCC(=O)N1CCC[C@H]1C(=O)N[C@@H](CO)C(=O)N[C@@H](CO)C(=O)NCC(=O)N[C@@H](C)C(=O)N1CCC[C@H]1C(=O)N1CCC[C@H]1C(=O)N1CCC[C@H]1C(=O)N[C@@H](CO)C(=O)N[C@@H](CS)C(N)=O)C(C)C` [compound 50] as the compound, how does the EC50 [2, 3] read?
Answer: 0.108 nM

Question: How did the EC50 [2, 3] turn out when `CCCCCCCCCCCCCCCC(=O)N[C@@H](CCC(=O)NCCCC[C@H](NC(=O)[C@H](CC(=O)O)NC(=O)[C@H](CO)NC(=O)[C@@H](NC(=O)[C@H](Cc1ccccc1)NC(=O)[C@@H](NC(=O)CNC(=O)[C@H](CCC(=O)O)NC(=O)C(C)(C)NC(=O)[C@@H](N)Cc1c[nH]cn1)[C@@H](C)O)[C@@H](C)O)C(=O)N[C@@H](CO)C(=O)N[C@@H](CCCCN)C(=O)N[C@@H](Cc1ccc(O)cc1)C(=O)N[C@@H](CC(C)C)C(=O)N[C@@H](CC(=O)O)C(=O)N[C@@H](CCC(=O)O)C(=O)N[C@@H](CCCNC(=N)N)C(=O)N[C@@H](C)C(=O)N[C@@H](C)C(=O)N[C@@H](CCC(N)=O)C(=O)N[C@@H](CC(=O)O)C(=O)N[C@@H](Cc1ccccc1)C(=O)N[C@H](C(=O)N[C@@H](CCC(N)=O)C(=O)N[C@@H](Cc1c[nH]c2ccccc12)C(=O)N[C@@H](CC(C)C)C(=O)N[C@@H](CC(C)C)C(=O)N[C@@H](CC(=O)O)C(=O)NCC(=O)NCC(=O)N1CCC[C@H]1C(=O)N[C@@H](CO)C(=O)N[C@@H](CO)C(=O)NCC(=O)N[C@@H](C)C(=O)N1CCC[C@H]1C(=O)N1CCC[C@H]1C(=O)N1CCC[C@H]1C(=O)N[C@@H](CO)C(N)=O)C(C)C)C(=O)O` [compound 80] (H-H[Aib]EGTFTSDK([γGlu-Palmitoyl])SKYLDERAAQDFVQWLLDGGPSSGAPPPS-NH2; N-terminus assumed) was run?
Answer: 0.008 nM

Question: For `CC[C@H](C)[C@H](NC(=O)[C@H](CO)NC(=O)[C@H](Cc1ccc(O)cc1)NC(=O)[C@H](CC(=O)O)NC(=O)[C@H](CO)NC(=O)[C@@H](NC(=O)[C@H](Cc1ccccc1)NC(=O)[C@@H](NC(=O)CNC(=O)[C@H](CCC(N)=O)NC(=O)C(C)(C)NC(=O)[C@@H](N)Cc1ccc(O)cc1)[C@@H](C)O)[C@@H](C)O)C(=O)N[C@@H](Cc1ccc(O)cc1)C(=O)N[C@@H](CC(C)C)C(=O)N[C@@H](CC(=O)O)C(=O)N[C@@H](CCCCN)C(=O)N[C@@H](CCCCN)C(=O)N[C@@H](C)C(=O)N[C@@H](C)C(=O)NC(C)(C)C(=O)N[C@@H](CCC(=O)O)C(=O)N[C@@H](Cc1ccccc1)C(=O)N[C@H](C(=O)N[C@@H](CC(N)=O)C(=O)N[C@@H](Cc1c[nH]c2ccccc12)C(=O)N[C@@H](CC(C)C)C(=O)N[C@@H](CC(C)C)C(=O)N[C@@H](C)C(=O)NCC(=O)NCC(=O)N1CCC[C@H]1C(=O)N[C@@H](CO)C(=O)N[C@@H](CO)C(=O)NCC(=O)N[C@@H](C)C(=O)N1CCC[C@H]1C(=O)N1CCC[C@H]1C(=O)N1CCC[C@H]1C(=O)N[C@@H](CO)C(=O)N[C@@H](CCCCN)C(N)=O)C(C)C` [mt-402], which EC50 ([2]; read-out: GLP-1 Receptor EC50, Table 1, Example 6) is on record?
Answer: 0.007 nM

From patent US9587005B2 (priority 2010, dated 2017)
